Assay results taken from patent publication US7345018B2, “Method of treating side effects induced by therapeutic agents” (Reception ApS, priority 2002, dated 2008).
Each block holds one compound with its values, some of them ahead of it.

Tests used:
[1] = tested on: cells expressing megalin and cubilin; assay: Inhibition of cellular accumulation of radiolabeled gentamicin; type: cell-based; conditions: FIG. 4
cubilin = target: T1, cubilin (Oryctolagus cuniculus, UniProt U3KLX7); assay: BIAcore analysis of binding to cubilin; conditions: for effect of reduction of disulfide-bridges on binding to cubilin: reduced receptor (reducing agent)
T1 construct: Megalin and cubilin purified from rabbit kidney cortex; from tissue
T1 sequence (U3KLX7 20-3539): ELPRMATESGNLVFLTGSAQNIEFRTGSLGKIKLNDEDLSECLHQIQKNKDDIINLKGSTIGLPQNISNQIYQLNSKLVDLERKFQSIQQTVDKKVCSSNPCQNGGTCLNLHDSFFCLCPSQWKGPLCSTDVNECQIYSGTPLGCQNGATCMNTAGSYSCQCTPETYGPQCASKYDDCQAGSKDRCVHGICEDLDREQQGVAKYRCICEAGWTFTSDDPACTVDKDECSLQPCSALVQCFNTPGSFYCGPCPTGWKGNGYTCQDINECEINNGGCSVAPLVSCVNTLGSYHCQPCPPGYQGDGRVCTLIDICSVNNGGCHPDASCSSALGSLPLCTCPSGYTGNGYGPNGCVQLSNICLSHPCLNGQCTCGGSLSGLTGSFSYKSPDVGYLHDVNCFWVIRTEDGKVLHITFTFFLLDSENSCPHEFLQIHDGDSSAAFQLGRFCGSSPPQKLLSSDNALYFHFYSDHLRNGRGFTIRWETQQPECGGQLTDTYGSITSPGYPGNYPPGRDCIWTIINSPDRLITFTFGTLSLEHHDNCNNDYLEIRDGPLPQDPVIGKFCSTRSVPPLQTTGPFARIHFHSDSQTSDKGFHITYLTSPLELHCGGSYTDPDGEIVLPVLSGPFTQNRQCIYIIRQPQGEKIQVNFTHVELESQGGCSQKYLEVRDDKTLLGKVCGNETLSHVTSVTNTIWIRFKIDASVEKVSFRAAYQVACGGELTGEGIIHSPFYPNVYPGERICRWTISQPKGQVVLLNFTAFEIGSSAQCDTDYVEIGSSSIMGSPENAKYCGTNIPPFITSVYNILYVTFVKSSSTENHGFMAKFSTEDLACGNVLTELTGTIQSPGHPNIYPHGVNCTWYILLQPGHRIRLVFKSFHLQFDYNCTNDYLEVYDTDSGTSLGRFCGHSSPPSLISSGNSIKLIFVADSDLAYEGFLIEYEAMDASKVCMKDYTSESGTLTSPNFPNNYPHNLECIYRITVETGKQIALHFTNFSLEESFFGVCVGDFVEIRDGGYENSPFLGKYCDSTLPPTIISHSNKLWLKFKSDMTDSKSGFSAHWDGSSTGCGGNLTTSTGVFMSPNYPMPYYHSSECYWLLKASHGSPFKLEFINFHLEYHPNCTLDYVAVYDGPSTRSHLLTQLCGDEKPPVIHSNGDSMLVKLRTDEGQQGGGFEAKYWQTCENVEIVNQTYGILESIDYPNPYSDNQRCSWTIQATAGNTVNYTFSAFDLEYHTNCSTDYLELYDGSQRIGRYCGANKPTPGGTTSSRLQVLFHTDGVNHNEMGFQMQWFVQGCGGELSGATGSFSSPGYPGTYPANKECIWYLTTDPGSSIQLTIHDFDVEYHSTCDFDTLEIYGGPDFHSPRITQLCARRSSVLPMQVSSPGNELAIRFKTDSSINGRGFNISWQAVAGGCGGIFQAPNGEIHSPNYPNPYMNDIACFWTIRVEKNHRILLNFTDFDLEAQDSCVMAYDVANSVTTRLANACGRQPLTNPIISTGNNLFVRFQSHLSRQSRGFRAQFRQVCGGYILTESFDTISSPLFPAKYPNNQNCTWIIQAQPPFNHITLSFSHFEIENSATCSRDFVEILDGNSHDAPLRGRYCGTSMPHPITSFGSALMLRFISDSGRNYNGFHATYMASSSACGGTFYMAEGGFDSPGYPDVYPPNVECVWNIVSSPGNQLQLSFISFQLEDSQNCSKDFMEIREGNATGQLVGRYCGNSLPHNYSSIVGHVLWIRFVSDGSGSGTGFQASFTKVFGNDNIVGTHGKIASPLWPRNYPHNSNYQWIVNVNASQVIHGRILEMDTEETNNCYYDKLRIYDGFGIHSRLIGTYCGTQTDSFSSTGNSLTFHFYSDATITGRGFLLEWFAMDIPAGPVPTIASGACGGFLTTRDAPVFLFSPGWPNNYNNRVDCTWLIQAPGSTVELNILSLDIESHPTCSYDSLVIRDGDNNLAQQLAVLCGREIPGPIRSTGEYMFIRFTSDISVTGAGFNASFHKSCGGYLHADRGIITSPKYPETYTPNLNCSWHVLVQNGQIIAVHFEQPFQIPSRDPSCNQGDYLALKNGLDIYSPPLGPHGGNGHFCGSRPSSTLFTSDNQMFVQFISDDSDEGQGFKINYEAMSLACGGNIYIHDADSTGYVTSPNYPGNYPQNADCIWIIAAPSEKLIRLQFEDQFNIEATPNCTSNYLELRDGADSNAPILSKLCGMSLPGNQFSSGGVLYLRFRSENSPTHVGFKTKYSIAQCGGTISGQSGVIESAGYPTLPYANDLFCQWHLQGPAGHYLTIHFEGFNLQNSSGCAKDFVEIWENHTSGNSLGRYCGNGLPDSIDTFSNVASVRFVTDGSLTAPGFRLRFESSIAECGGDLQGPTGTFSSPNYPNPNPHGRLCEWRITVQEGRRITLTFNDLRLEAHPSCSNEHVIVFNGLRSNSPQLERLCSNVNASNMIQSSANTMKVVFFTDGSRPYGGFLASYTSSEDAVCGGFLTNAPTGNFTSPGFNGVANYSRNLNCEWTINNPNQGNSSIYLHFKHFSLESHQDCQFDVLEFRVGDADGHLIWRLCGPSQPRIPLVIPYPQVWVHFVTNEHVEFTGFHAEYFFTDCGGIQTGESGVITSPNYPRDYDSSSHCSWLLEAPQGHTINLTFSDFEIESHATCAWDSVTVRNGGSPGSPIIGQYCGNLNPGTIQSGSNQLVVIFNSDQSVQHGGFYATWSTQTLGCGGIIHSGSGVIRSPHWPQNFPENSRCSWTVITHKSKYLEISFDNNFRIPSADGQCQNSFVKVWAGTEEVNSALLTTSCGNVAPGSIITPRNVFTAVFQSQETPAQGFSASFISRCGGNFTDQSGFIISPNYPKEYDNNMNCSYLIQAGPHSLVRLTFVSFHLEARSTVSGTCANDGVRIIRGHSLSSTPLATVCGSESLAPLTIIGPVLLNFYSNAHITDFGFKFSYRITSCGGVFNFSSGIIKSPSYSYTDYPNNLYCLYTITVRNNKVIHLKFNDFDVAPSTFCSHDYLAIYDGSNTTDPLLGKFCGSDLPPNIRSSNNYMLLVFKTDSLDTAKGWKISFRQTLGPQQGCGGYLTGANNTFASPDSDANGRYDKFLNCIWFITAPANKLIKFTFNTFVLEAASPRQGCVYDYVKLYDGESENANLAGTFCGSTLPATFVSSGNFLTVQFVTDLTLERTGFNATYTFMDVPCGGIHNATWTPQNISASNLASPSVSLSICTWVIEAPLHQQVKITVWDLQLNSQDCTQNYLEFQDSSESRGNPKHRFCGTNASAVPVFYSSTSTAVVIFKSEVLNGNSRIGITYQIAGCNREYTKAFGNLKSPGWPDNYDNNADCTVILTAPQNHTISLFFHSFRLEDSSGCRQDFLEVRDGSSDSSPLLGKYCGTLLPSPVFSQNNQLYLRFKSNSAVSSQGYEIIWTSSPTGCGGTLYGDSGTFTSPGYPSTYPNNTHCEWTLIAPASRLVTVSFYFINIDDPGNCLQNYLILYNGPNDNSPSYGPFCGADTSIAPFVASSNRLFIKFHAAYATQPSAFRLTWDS

mouse kidney = assay: Inhibition of uptake of radio-labeled gentamicin into mouse kidney; type: in vivo; conditions: intravenous co-infusion, FIG. 5
Source text: FIG. 5: Inhibition of uptake of radio-labeled gentamicin into mouse kidney
The drugs were administrated intravenously. […] This is most likely because infused RAP rapidly is cleared from the circulation by uptake into the liver.

megalin [2] = assay: BIAcore analysis of binding to megalin
megalin [3] = target: T2, megalin (Mus musculus, UniProt A2ARV4); assay: Uptake of radioactively labelled gentamicin in wildtype and megalin-deficient (knockout) mice; type: in vivo; conditions: wildtype mice, after 24 hours, radioactively labelled
T2 construct: from tissue; host or cells: kidney of living wildtype mice (in vivo); the knockout mice lack the receptor
Procedure: (§1) Radioactively labelled aminoglycosides (gentamicin) were injected into 26 normal (wildtype) and into 3 megalin-deficient mice (knockout). After 24 hours, the secretion of the aminoglycosides into the urine and their accumulation in the kidneys were determined. In wildtype mice, about 10% of the administered aminoglycosides are accumulated in the kidneys and 40% are secreted into the urine.
(§2) In one embodiment the animal model is a mouse model with an induced megalin gene defect (knockout mouse; Nykjaer, A. et al., Cell 96, 507-515). In these animals, the contribution of megalin and other receptor-mediated or receptor-independent processes to the drug uptake into the kidneys may be tested. The amount of intracellular accumulation of the drug in question as compared to a control having sufficient megalin indicates whether the mechanism of side effects is intracellular accumulation through megalin binding or some other mechanism.

megalin [4] = assay: as above; type: in vivo, mouse; conditions: megalin-deficient knockout mice, after 24 hours
Procedure: as §1, §2

megalin [5] = target: T2, megalin; assay: Suppression of radioactive gentamicin uptake into the kidneys of wildtype mice by megalin antagonist; type: in vivo; conditions: co-injection with radioactive gentamicin
Procedure: Two groups of wildtype mice received an injection of radioactive gentamicin. One group was also injected with polymyxin B, a substance that binds with a high affinity to megalin and displaces gentamicin from the receptor. The administration of polymyxin B reduces the uptake of aminoglycosides into the kidneys by more than 60%.

megalin [6] = conditions: relative to gentamicin; cited from earlier work
[7] = patients, nephro- and ototoxic side effects; cited from earlier work
[8] = addition of EDTA (calcium depletion)

Compound: poly-L-aspartate
inhibition of cellular accumulation of radiolabeled gentamicin [1]: not

effect of reduction of disulfide-bridges on binding to cubilin (cubilin): significantly inhibited
Compound: RAP: receptor-associated protein, a cellular protein comprising about 300 amino acids, known to bind to megalin
inhibition of cellular accumulation of radiolabeled gentamicin [1]: able to inhibit at least partly

binding to megalin (megalin [2]; BIAcore, FIG. 3 panel A): direct binding | effect of EDTA on binding to megalin (megalin [2]; [8]): does not abolish binding | binding to cubilin (cubilin; BIAcore, FIG. 3 panel B): direct binding | effect of EDTA on binding to cubilin (cubilin; [8]): does not abolish binding | accumulation of administered aminoglycoside in the kidneys (megalin [3]): about 10% | secretion of administered aminoglycoside into the urine (megalin [3]): 40% | accumulation of aminoglycoside in the kidneys (megalin [4]): no accumulation | secretion of antibiotic into the urine (megalin [4]): 40%
Compound: gentamicin
inhibition of uptake of radio-labeled gentamicin into mouse kidney (mouse kidney): can be inhibited | effect of reduction of disulfide-bridges on binding to megalin (megalin [2]; reduced receptor): does not significantly interefere with ligand binding | effect of reduction of disulfide-bridges on binding to cubilin (cubilin): does not significantly interefere with ligand binding

Compound: aprotinin
inhibition of cellular accumulation of radiolabeled gentamicin [1]: inhibit gentamioin uptake

reduction of uptake of aminoglycosides into the kidneys (megalin [5]): more than 60%
Compound: polymyxin B
inhibition of uptake of radio-labeled gentamicin into mouse kidney (mouse kidney): can be inhibited | inhibition of cellular accumulation of radiolabeled gentamicin [1]: inhibit gentamioin uptake

Compound: poly-L-lysine
inhibition of uptake of radio-labeled gentamicin into mouse kidney (mouse kidney): can be inhibited | inhibition of cellular accumulation of radiolabeled gentamicin [1]: can be inhibited

Compound: NCC[C@H](O)C(=O)N[C@@H]1C[C@H](N)[C@@H](O[C@H]2O[C@H](CN)[C@@H](O)[C@H](O)[C@H]2O)[C@H](O)[C@H]1O[C@H]1O[C@H](CO)[C@@H](O)[C@H](N)[C@H]1O [amikacin]
poorer binding than gentamicin to megalin (megalin [6]): about 5 times | rate of toxicity [7]: 1-4%
